We go through five molecules from patent US10072026B2, “Crystalline form of 3-((1R,3s,5S)-3-((7-((5-methyl-1H-pyrazol-3-yl)amino)-1,6-naphthyridin-5-yl)amino)-8-azabicyclo[3.2.1]octan-8-yl)propanenitrile” (priority 2015, dated 2018).

As a reminder, the pKi is the Ki on a negative log10 scale, so that one unit is a factor of ten. The term bioavailability denotes dose-corrected exposure relative to a reference, in per cent.

pKi: −log10 of the molar value. Read-outs that look alike come from different tables or passages of the source. Some results are limits rather than exact numbers.

Data set [1] deals with oxazolone-induced colitis. The experiment in a line: Mouse model of oxazolone-induced colitis. It counts as in vivo, BALB/C mice. Particulars: mouse, PO, 1, 3, and/or 10 mg/kg BID. How it is done:
Assay 7: Mouse Model of Oxazalone-Induced Colitis
Oxazolone-induced colitis is an experimental model that has a histological resemblance to human ulcerative colitis (Heller et al. Immunology, 2002, 17, 629-638). Adult BALB/C mice from Harlan were used in the assay. On day 1, animals were lightly anesthetized with isoflurane and the hairs between the shoulder were carefully removed before oxazolone (4%, 150 μL, 4:1 acetone:olive oil formulation) or vehicle solution was slowly applied for skin sensitization. Seven days after skin sensitization, the mice were fasted overnight, anesthetized with isoflurane inhalation, and a 1 mL syringe equipped with a 3.5-F catheter, filled with oxazolone solution, was inserted carefully about 4 cm into the colon of the mouse. Following insertion, 50 μL of the oxazolone solution (1%, 1:1 ethanol:water formulation) was injected very slowly (over 30 sec using an injection pump) into the colon. The catheter was removed and the mice were held vertically (head down) for 2 min to ensure that the entire oxazolone solution remained inside the colon. Drug treatment (PO, BID or TID) or vehicle was initiated a day prior to the oxazolone intrarectal (IR) challenge. Two-day post oxazolone intrarectal challenge, the Disease Activity Index (DAI) was assessed by treatment-blinded experimenters for each mouse according to the criteria score: stool consistency score (0, normal; 2, loose; 4, diarrhea), gross bleeding score (0, absence; 2, blood tinged; 4, presence), and weight loss score (0, none; 1, 1%-5%; 2, 5%-10%; 3, 10%-20%; 4, more than 20%); DAI=average of (stool consistency score+gross bleeding score+weight loss score).
Selected compounds of the invention were tested in the assay. Efficacy in the model is evidenced by a decrease in DAI score as compared with the score from vehicle treated animals.

Data set [2] deals with IL-13 induced STAT6 phosphorylation in BEAS-2B human lung epithelial cells. The experiment in a line: AlphaScreen cellular JAK potency assay, BEAS-2B. The note with it: Homo sapiens, BEAS-2B, read-out: BEAS2B pIC50 (converted).
The target of a further data set is JAK1 (Homo sapiens (Human), UniProt P23458). The data set can be described thus: LanthaScreen JAK biochemical assay (JAK1). For orientation: Time-resolved FRET reads energy transfer from a long-lived donor to a nearby acceptor.
Chain of JAK1 (P23458 whole entry): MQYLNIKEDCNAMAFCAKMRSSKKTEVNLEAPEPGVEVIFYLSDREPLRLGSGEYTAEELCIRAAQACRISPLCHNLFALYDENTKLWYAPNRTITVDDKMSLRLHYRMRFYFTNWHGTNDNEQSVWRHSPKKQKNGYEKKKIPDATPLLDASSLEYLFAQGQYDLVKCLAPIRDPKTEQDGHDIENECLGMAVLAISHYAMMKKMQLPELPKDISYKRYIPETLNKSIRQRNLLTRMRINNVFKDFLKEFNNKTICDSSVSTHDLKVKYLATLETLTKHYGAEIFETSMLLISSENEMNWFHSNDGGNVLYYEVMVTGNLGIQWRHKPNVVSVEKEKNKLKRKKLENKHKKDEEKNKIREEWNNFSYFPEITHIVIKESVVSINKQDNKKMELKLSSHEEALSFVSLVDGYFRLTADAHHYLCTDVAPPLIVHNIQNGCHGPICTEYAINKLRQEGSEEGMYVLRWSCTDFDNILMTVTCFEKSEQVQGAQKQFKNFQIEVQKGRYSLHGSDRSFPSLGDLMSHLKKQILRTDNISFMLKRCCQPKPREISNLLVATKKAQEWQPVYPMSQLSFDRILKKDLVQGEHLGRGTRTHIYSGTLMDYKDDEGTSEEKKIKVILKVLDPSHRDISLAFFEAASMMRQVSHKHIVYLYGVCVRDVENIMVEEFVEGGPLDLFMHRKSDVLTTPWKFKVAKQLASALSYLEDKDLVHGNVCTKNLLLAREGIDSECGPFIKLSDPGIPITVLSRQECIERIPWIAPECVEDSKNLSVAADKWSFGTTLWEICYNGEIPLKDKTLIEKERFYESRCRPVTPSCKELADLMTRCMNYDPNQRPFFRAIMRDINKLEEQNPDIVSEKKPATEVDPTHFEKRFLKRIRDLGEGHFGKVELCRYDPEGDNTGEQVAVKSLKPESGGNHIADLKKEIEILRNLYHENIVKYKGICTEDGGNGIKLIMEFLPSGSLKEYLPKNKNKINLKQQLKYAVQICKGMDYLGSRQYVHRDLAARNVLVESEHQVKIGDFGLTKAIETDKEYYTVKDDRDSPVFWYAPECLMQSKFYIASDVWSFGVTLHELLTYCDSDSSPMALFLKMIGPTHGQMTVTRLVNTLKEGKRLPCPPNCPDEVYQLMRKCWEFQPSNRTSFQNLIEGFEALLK
The nature of the next data set: in vivo. On the set-up: species or system Sprague Dawley rats. Particulars: Sprague Dawley, rat, po, 5 mg/kg. As for the experimental part:
Assay 5: Colon Pharmacokinetics in Rats
Test compounds were individually formulated in 0.5% methyl-cellulose in water and dosed via oral gavage at 5 mg/kg to Sprague Dawley rats. At various time points (typically 1, 2, 4, 6, 24 hr) post dosing, blood samples were removed via cardiac puncture and intact colons were excised from the rats. Blood samples were centrifuged at 1500×g for 15 min to collect plasma. Colons were washed with ice cold phosphate buffered saline (PBS), weighed, and homogenized at a dilution of 1:10 in PBS. Plasma and colon levels of test compound were determined by LC-MS analysis against analytical standards constructed into a standard curve in the test matrix. A colon to plasma ratio was determined as the ratio of the colon AUC to the plasma AUC in μg hr/g.

Data set [3] relates to IL-4 induced STAT6 phosphorylation in THP-1 human monocytic cells. The experiment in a line: Cellular JAK potency assay, THP-1. The note with it: Homo sapiens, THP-1, read-out: THP-1 IL4 pIC50 (converted).
Another data set addresses JAK2 (Homo sapiens (Human), UniProt O60674). The experiment in a line: LanthaScreen JAK biochemical assay (JAK2).
Data set [4] is described as follows: Determination of absorption in cannulated rats. In kind it is in vivo. Particulars: Sprague Dawley rats, oral vs IV. How it is done:
Drug levels were determined using an LC-MS-MS method. The resulting drug levels were used to compute the IV pharmacokinetic parameters: AUC IV and Dose IV. (2) Rats that have been cannulated in their portal vein (PV) and also in their jugular vein (JV) were dosed orally with test compound. Following oral dosing, plasma samples were typically collected from 0-6 hr from both the portal vein and the jugular vein. Drug levels were determined using an LC-MS-MS method. The resulting drug levels were used to compute the following pharmacokinetic parameters: AUC PO PV, AUC PO JV, and Dose PO. Using data derived from the above studies, the oral bioavailability F %, and the quantities Fa% and Fh% were calculated from the following formulas: F %=(AUC PO JV/AUC IV)*(Dose IV/Dose PO)*100 Fa%=(AUC PO PV/AUC IV)*(Dose IV/Dose PO)*100 Fh%=AUC PO JV/AUC PO PV where: AUC PO JV=Area under the curve following oral dose and plasma collected from the jugular vein AUC PO PV=Area under the curve following oral dose and plasma collected from the portal vein AUC IV=Area under the curve following an intravenous dose Dose IV=Intravenous Dose in mg/kg Dose PO=Oral Dose in mg/kg

Data set [5] in a line: Solid state stability assessment. On the set-up: Impurity at RRT 0.96 / Impurity at RRT 1.84: unit not given here. It counts as physicochemical. The source says:
Solid State Stability Assessment
At specific intervals, the contents of a representative sample was removed and analyzed by HPLC for chemical purity and by Karl Fischer for water content.

The nature of data set [6]: Dynamic moisture sorption assessment. It counts as physicochemical. How it is done: The DMS run was performed isothermally at 25° C.
The next data set relates to mouse splenic NK cells. The experiment in a line: Immunosuppression effects in mouse splenic natural killer (NK) cells. In kind it is in vivo, Balb/C mice. The note with it: PO BID three days. As for the experimental part: Adult male Balb/C mice (12-14 weeks of age) from Harlan were used for the study. […] Spleens were harvested 1 or 2 h post last dose and crushed immediately for cell subtype staining. Prior to fixation, fluorophore-labelled antibodies for CD19 (FITC; B cells), CD3e (PE; pan T cells) and DX5 (APC; NK cells) were incubated with splenocyte samples from each animal to allow for simultaneous, multiple subtype % analysis on the flow cytometer. The number of total spleen cells for each animal was measured by Scepter™ 2.0 Handheld Automated Cell Counter. The absolute number of lymphocyte subtype population (e.g., splenic B, T and NK cells) was calculated from the percentage of each subtype times total spleen cells for each animal. A one way ANOVA, with Dunnett's post hoc test, was used to compare the splenic lymphocytes number of the vehicle and test compound groups. The a level was set at p<0.05. Data were presented as the mean±SEM for each group.

Chain of JAK2 (O60674 whole entry): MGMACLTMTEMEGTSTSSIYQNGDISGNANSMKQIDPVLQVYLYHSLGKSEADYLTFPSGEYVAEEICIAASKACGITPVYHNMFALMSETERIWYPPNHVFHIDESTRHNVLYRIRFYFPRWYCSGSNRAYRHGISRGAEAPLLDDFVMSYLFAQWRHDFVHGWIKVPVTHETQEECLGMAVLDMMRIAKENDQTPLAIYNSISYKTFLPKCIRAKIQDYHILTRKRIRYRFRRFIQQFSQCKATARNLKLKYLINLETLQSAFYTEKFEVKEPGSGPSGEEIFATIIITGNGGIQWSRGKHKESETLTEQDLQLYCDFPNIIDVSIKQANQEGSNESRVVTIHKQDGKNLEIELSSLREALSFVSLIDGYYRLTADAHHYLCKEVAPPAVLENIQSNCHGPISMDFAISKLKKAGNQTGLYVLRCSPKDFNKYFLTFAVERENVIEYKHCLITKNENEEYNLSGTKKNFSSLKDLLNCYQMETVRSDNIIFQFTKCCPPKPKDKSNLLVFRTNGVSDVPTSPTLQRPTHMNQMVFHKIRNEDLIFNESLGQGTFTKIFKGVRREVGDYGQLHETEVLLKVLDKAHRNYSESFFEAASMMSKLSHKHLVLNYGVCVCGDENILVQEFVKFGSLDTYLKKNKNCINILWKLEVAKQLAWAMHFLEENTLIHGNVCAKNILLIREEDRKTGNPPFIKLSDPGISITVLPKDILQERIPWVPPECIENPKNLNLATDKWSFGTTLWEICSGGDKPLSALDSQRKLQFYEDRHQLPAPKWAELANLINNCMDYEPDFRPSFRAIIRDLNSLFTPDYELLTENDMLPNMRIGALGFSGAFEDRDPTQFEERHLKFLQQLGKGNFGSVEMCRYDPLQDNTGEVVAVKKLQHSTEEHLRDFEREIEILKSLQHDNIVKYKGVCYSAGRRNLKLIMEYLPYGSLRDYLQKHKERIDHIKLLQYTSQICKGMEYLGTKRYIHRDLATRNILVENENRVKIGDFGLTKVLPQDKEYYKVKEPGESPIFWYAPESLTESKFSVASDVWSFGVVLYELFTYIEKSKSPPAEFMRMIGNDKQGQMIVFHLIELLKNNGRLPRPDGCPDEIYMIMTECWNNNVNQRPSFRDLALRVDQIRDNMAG

As to `Cc1cc(Nc2cc3ncccc3c(N[C@@H]3C[C@H]4CC[C@@H](C3)N4CCF)n2)n[nH]1` [Example 2, N^5-((1R,3s,5S)-8-(2-fluoroethyl)-8-azabicyclo[3.2.1]octan-3-yl)-N^7-(5-methyl-1H-pyrazol-3-yl)-1,6-naphthyridine-5,7-diamine], the “decrease in DAI score as compared with vehicle treated animals” value (“decrease in DAI score” below) in data set [1] is listed as “statistically significant decrease”. The IC50 in data set [2] and in data set [3] was 31.6 to 200 nM in each case. Moreover, the Ki at JAK1 (read-out: JAK 1 (pKi) (converted)) is 0.1 to 1 nM. In addition, in the data set “in vivo”, the Kp was over 450. The molecule further gave a pKi on JAK2 of 9.00 to 10.00.
For the molecule `Cc1cc(Nc2cc3ncccc3c(N[C@@H]3C[C@H]4CC[C@@H](C3)N4C(=O)C(F)F)n2)n[nH]1` [Example 5, 2,2-difluoro-1-((1R,3s,5S)-3-((7-((5-methyl-1H-pyrazol-3-yl)amino)-1,6-naphthyridin-5-yl)amino)-8-azabicyclo[3.2.1]octan-8-yl)ethan-1-one], the “decrease in DAI score” value in [1] is reported as “statistically significant decrease”. Moreover, in “in vivo”, the Kp was over 450.
`Cc1cc(Nc2cc3nc(CO)ccc3c(N[C@@H]3C[C@H]4CC[C@@H](C3)N4C(=O)OCC(C)C)n2)n[nH]1` [Example 12, Isobutyl(1R,3s,5S)-3-((2-(hydroxymethyl)-7-((5-methyl-1H-pyrazol-3-yl)amino)-1,6-naphthyridin-5-yl)amino)-8-azabicyclo[3.2.1]octane-8-carboxylate]: the “decrease in DAI score” value in data set [1] is on record as “statistically significant decrease”. In addition, the “absorption at the portal vein (Fa%)” value in data set [4] (portal vein) was “less than 10%”. Moreover, in [4] (rat, plasma (jugular vein), jugular vein, read-out: oral bioavailability (F %)), the bioavailability was under 5%. Further, the IC50 in data set [2] and in data set [3] was 31.6 to 200 nM each time. The negative logarithm of the Ki (pKi) on JAK1 was 9.00 to 10.00. The Ki on JAK2 (read-out: JAK 2 (pKi) (converted)) was 0.1 to 1 nM.
For the molecule `Cc1cc(Nc2cc3ncccc3c(N[C@@H]3C[C@H]4CC[C@@H](C3)N4CCC#N)n2)n[nH]1` [Form I, 3-((1R,3s,5S)-3-((7-((5-methyl-1H-pyrazol-3-yl)amino)-1,6-naphthyridin-5-yl)amino)-8-azabicyclo[3.2.1]octan-8-yl)propanenitrile], in data set [5] (3 months at 40° C. and 75% relative humidity), the “changes in chemical content and impurity profile” value is “no statistically significant changes”. In addition, in data set [5] (T = 0), the Assay is listed as 97.4 % w/w, the HPLC purity came out at 99.76 a/a %, the “Impurity at RRT 0.96” value is given as 0.07 and the “Impurity at RRT 1.84” value turned out to be 0.08. For the same molecule, the “Water (KF)” value in data set [5] (T = 0) was under 0.2 % w/w. In data set [5] (T = 1 Month, 40° C./75% RH), the Assay is reported as 98.7 % w/w, the HPLC purity came out at 99.79 a/a %, the “Impurity at RRT 0.96” value stood at 0.07 and the “Impurity at RRT 1.84” value is 0.08. In data set [5] (T = 3 Month, 25° C./60% RH), the Assay was 96.3 % w/w, the HPLC purity was 99.77 a/a %, the “Impurity at RRT 0.96” value is recorded as 0.07 and the “Impurity at RRT 1.84” value stood at 0.05. Further, in data set [5] (T = 3 Month, 40° C./75% RH), the Assay is given as 93.8 % w/w, the HPLC purity was determined as 99.75 a/a %, the “Impurity at RRT 0.96” value is 0.07 and the “Impurity at RRT 1.84” value came to 0.05. The “Water (KF)” value in data set [5] (T = 3 Month, 40° C./75% RH) is listed as under 0.2 % w/w. In data set [6] (5% to 90% relative humidity, room temperature, listed as Crystalline 3-(1R,3s,5S)-3-((7-((5-methyl-1H-pyrazol-3-yl)amino)-1,6-naphthyrid))), the “weight gain (moisture sorption)” value is “less than 0.15%”. The hygroscopicity result in data set [6] (two cycles of sorption and desorption, 25° C.) was “non-hygroscopic”.
Regarding `C[C@@H]1CCN(C(=O)CC#N)C[C@@H]1N(C)c1ncnc2[nH]ccc12` [tofacitinib], the “treatment effect on B and T cell populations” value in the data set with mouse splenic NK cells (mouse spleen) is listed as “No treatment effect”. Moreover, the “splenic NK cell counts” value with mouse splenic NK cells (mouse, tofacitinib 30 mg/kg, Example 1 up to 100 mg/kg) was “significantly decreased”.
